Experiment [1] relates to primary human keratinocytes. The experiment is described as follows: Inflammasome-driven pyroptosis in primary human keratinocytes. It counts as cell-based. Conditions: keratinocytes freshly isolated from a healthy donor.
In experiment [2] the test system is primary bronchial epithelial cells (NHBEs). The experiment is described as follows: Inflammasome activation and pyroptosis in primary bronchial epithelial cells. It is filed as cell-based, human. To be noted: ANS 1 μM.
Another experiment relates to MV4-11. As to the kind of experiment: GSDMD cleavage in MV4-11 leukemia cell line. Conditions: CARD8-activating cell line. It is filed as cell-based, human.
For the next experiment, the target named is T1, human DPP9 (Homo sapiens, UniProt Q86TI2).
T1 construct: expressed in transfected cells; host or cells: 293T
As to the kind of experiment: DPP8/9 activity assay (in vitro proteolysis assay). It is filed as biochemical. To be noted: Gly-Pro-AMC hydrolysis. On the procedure: 293T cells were transfected with vector or wild-type DPP9. DPP9-transfected cells were treated with VbP, Anisomycin (ANS) or Harringtonine (HTN). Cells were lysed in PBS 1% Tween-20, 48 h after transfection and treatments. 0.3 μg of total lysate was then incubated with 0.1 μM uGly-Pro-AMC fluorescence substrate. AMC fluorescence was measured after 30 mins at 25° C. in a 50 μl reaction every minute on a spectrometer and the rate of Gly-Pro-AMC hydrolysis per minute calculated.

Another experiment concerns NLRP1. The experiment is described as follows: Ribosome-bound NLRP1, sucrose cushion. It counts as cell-based, human. Conditions: N-TERT cell lysates. On the procedure: Crude cellular ribosome fractions were purified by sedimentation through a 30% sucrose cushion or a 10-30% sucrose gradient. Cells were lysed for 20 min in 15 mM Tris, pH 7.5, 0.5% NP-40, 6 mM MgCl2, 300 mM NaCl, with 1× protease inhibitors before centrifugation for 10 min at 12000 g, 4° C. The supernatant was then carefully layered onto a 30% sucrose cushion 30% sucrose in 20 mM Tris, pH 7.5, 2 mM MgCl2, 150 mM KCl and ultra-centrifuged at 34,000 rpm for 24 h using Beckman Coulter Ultracentrifuge, Optima XE. Pellets then washed three times with ice cold PBS and suspended in 100 mM KCl, 5 mM MgCl2, 20 mM HEPES, pH 7.6, 1 mM DTT and 10 mM NH4Cl. Purified ribosome fractions were then analysed by immunoblot.

The test system of the next experiment is NLRP1^DR. As to the kind of experiment: NLRP1 PYD-DR1 / NLRP1^DR phosphorylation (GFP fusion, immunoblot, PhosTag SDS-PAGE) in N-TERT cells. It is filed as cell-based, human. The text has this:
The following antibodies were used in this study: cleaved PARP1 (Abclonal, #WH162766), Cleaved CASP3 (Abclonal, #WH154646), Full length GSDMD-FL (Abcam, #ab210070), IL1β p17 specific (CST, #83186S), CARD8 (Abcam, CARD8-NT: ab19485, CARD8-CT: ab241186), DPP9 (Abcam, ab226334), c-Myc (Santa Cruz Biotechnology, #sc-40), HA tag (Santa Cruz Biotechnology, #sc-805), GAPDH (Santa Cruz Biotechnology, #sc-47724), ASC (Adipogen, #AL-177), CASP1 (Santa Cruz Biotechnology, #sc-622), 11_1B (R&D systems, #AF-201), FLAG (SigmaAldrich, #F3165), NLRP1 (R&D systems, #AF6788), IL18 (Abcam ab207324), cleaved GSDMD-NT (Asp275) (Cell Signaling Technology, #36425), RPL31 (Abclonal, #WH162766), CASP7 (Abcam, ab255818), CASP8 (Abcam, ab32397), cleaved CASP3 (Cell Signaling Technology, #9664). All horseradish peroxidase (HRP)— conjugated secondary antibodies were purchased from Jackson Immunoresearch (goat anti-mouse IgG: 115-035-166; goat anti-rabbit IgG: 111-035-144; and donkey anti-goat IgG: 705-005-147). Blue-Native PAGE was carried out using the Native-PAGE system (ThermoFisher) with 10-20 μg of total lysate. For SDS-PAGE using whole cell lysates, cells were resuspended in tris-buffered saline 1% NP-40 with protease inhibitors (Thermo Scientific, #78430). Protein concentration was determined using the Bradford assay (Thermo Scientific, #23200) and […] of protein loaded, a part from cleaved GSDMD-NT visualisation where […] of protein was used. All primary antibodies were used at 250 ng/ml. Visualisation of ASC oligomerization was previously described (Robinson et al., 2020). For analysis of IL1β and IL-18 cleavage in the media by immunoblotting, samples were concentrated using filtered centrifugation (Merck, Amicon Ultra, #UFC5003BIK). Protein samples were run using immunoblotting, and then visualized using a ChemiDoc Imaging system (Bio-Rad). PhosTag SDS-PAGE was carried out using homemade 10% SDS-PAGE gel, with addition of Phos-tag Acrylamide (Wako Chemicals, AAL-107) to a final concentration of 30 μM and manganese chloride(II) (Sigma-Aldrich, #63535) to 60 μM.
Cells were directly harvested using Laemmli buffer, lysed with an ultrasonicator, and loaded into the Phos-tag gel to run. Once the run was completed, the polyacrylamide gel was washed in transfer buffer with 10 mM EDTA twice, subsequently washed without EDTA twice, blotted onto 0.45 μm PVDF membranes (Bio-rad), blocked with 3% milk, and incubated with primary and corresponding secondary antibodies.

T1 sequence (Q86TI2 whole entry): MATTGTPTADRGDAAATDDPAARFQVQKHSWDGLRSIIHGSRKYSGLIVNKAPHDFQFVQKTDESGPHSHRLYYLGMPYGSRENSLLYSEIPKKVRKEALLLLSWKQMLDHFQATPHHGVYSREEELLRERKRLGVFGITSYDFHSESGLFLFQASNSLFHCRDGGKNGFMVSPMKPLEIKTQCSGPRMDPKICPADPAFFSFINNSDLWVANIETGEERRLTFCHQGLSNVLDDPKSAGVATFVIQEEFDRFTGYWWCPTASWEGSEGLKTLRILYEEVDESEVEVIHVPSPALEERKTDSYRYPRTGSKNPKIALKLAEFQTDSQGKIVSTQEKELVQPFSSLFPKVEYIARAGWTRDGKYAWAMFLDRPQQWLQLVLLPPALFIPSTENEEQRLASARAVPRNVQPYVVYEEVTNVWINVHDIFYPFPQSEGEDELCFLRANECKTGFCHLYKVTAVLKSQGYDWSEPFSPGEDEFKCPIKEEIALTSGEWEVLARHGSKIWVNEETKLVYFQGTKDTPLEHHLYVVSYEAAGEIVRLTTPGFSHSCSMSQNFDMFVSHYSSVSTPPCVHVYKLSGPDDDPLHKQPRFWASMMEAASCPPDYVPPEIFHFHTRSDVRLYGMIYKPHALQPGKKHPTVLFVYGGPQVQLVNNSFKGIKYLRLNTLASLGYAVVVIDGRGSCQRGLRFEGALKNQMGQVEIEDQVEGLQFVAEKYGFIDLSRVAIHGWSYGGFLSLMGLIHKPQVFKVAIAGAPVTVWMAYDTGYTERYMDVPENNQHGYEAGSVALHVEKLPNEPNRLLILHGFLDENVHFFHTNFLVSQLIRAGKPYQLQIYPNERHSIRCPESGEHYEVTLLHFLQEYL

With `COc1ccc(C[C@H]2NC[C@H](O)[C@H]2OC(C)=O)cc1` [ANS, Anisomycin], the inflammasome-driven pyroptosis entry in experiment [1] is listed as “induce inflammasome-driven pyroptosis was also confirmed”. Also, the “canonical inflammasome activation and pyroptosis” value in experiment [2] is “underwent canonical inflammasome activation and pyroptosis”. The GSDMD cleavage result in the experiment on MV4-11 is “did not display detectable GSDMD cleavage”. Also, the “catalytic activity of human DPP9” value at human DPP9 was “had no effect on the catalytic activity of human DPP9”. In the experiment with NLRP1, the “level of ribosome-bound NLRP1” value is “dramatically increased the level of ribosome-bound NLRP1”. Besides, the “NLRP1^DR hyperphosphorylation” value in the experiment on NLRP1^DR (NLRP1DR-GFP in N-TERT cells, PhosTag SDS-PAGE) is listed as “became further phosphorylated”. The “band shift (phosphorylation) of PYD-DR1-GFP” value in the experiment with NLRP1^DR (NLRP1 KO N-TERT cells expressing GFP-tagged PYD-DR1) is “band shift in PYD-DR1-GFP”.

These data come from patent US20240148728A1, “NOVEL METHOD TO BLOCK IN[…] DEATH AND IL-1BETA SECRETION CAUSED BY […] UV I[…] GENETIC AND CHEMICAL INHIBITORS OF ZAKA AND THE NLRP1 INFLAMMASOME” (priority 2021, published 2024).
